# Experimental data: patent US7345070B2, “Peroxisome proliferator activated receptor agonists” (Eli Lilly and Company, priority 2000, dated 2008)
# Target: T1, huPPARγ (Homo sapiens, UniProt P37231)
# T1 sequence (P37231 1-505): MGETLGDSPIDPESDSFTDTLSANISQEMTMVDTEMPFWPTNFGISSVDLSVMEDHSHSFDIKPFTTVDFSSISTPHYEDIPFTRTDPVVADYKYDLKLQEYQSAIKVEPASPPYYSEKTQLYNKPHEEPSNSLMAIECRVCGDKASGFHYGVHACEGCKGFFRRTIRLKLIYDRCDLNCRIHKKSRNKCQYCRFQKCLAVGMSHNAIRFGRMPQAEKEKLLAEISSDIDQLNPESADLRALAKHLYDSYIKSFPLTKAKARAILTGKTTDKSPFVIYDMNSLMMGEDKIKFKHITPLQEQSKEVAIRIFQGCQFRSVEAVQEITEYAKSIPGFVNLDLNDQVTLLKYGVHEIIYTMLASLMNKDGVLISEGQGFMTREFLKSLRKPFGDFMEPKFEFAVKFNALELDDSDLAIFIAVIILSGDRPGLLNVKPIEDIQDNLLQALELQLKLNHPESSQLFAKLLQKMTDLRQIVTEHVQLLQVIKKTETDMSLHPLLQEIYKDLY
# T1 sequence (P19793 1-462 partner): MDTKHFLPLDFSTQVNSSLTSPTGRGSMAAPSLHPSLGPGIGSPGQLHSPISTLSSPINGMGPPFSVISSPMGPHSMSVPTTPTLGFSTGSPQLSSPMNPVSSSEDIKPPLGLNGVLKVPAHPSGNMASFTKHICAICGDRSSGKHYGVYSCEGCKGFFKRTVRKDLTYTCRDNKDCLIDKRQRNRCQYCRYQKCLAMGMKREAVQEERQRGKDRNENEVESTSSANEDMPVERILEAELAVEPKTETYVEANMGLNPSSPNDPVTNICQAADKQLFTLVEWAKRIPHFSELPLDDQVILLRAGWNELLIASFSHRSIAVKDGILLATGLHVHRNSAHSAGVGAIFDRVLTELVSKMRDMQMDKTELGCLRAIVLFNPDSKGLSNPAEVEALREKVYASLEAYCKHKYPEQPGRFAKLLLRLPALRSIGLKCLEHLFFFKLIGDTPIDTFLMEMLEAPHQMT
# Test: DNA-dependent binding (ABCD binding) using SPA technology, huPPARγ
# Settings: SPA displacement of tritium-labeled PPARγ agonist radioligand
# Protocol: DNA-dependent binding (ABCD binding) was carried out using SPA technology with PPAR receptors. Tritium-labeled PPARα and PPARγ agonists were used as radioligands for generating displacement curves and IC50 values with compounds of the invention. Cotransfection assays were carried out in CV-1 cells. The reporter plasmid contained an acylCoA oxidase (AOX) PPRE and TK promoter upstream of the luciferase reporter cDNA. Appropriate PPARs and RXRα were constitutively expressed using plasmids containing the CMV promoter. […] In order to eliminate such interference, a GAL4 chimeric system was used in which the DNA binding domain of the transfected PPAR was replaced by that of GAL4, and the GAL4 response element was utilized in place of the AOX PPRE. Cotransfection efficacy was determined relative to PPARα agonist and PPARγ agonist reference molecules. Efficacies were determined by computer fit to a concentration-response curve, or in some cases at a single high concentration of agonist (10 μM). For binding or cotransfection studies with receptors other than PPARs, similar assays were carried out using appropriate ligands, receptors, reporter constructs, etc., for that particular receptor.
# These studies were carried out to evaluate the ability of compounds of the invention to bind to and/or activate various nuclear transcription factors, particularly huPPARα (“hu” indicates “human”) and huPPARγ. These studies provide in vitro data concerning efficacy and selectivity of compounds of the invention. Furthermore, binding and cotransfection data for compounds of the invention were compared with corresponding data for marketed compounds that act on either huPPARα or huPPARγ.
row,Compound,IC50
1,"Cc1oc(-c2cccc(Br)c2)nc1CCOc1ccc(CC(C)(Oc2ccccc2)C(=O)O)cc1 (centres unmarked) [Example 8, 3-(4-{2-[2-(3-Bromophenyl)-5-methyloxazol-4-yl]ethoxy}phenyl)-2-methyl-2-phenoxypropionic acid]",24 nM
2,"Cc1oc(C2(C)CCCCC2)nc1CCOc1ccc(CC(C)(Oc2ccccc2)C(=O)O)cc1 (centres unmarked) [Example 9, 2-Methyl-3-(4-{2-[5-methyl-2-(1-methylcyclohexyl)oxazol-4-yl]ethoxy}phenyl)-2-phenoxypropionic acid]",11 nM
3,"Cc1oc(-c2cccs2)nc1CCOc1ccc(CC(C)(Oc2ccc(C(C)(C)C)cc2)C(=O)O)cc1 (centres unmarked) [Example 17, 2-Methyl-3-{4-[2-(5-methyl-2-thiophen-2-yl-oxazol-4-yl)-ethoxy]-phenyl}-2-(4-tert-butylphenoxy)-propionic acid]",67 nM
4,"Cc1oc(C2CCCCC2)nc1CCOc1ccc(CC(C)(Oc2ccc(C(C)(C)C)cc2)C(=O)O)cc1 (centres unmarked) [Example 18, 2-Methyl-3-(4-{2-[5-methyl-2-cyclohexylyl-oxazol-4-yl]-ethoxy}-phenyl)-2-(4-tert-butylphenoxy)-propionic acid]",60 nM
5,"COc1ccc(OC(C)(Cc2ccc(OCCc3nc(-c4cccs4)oc3C)cc2)C(=O)O)cc1 (centres unmarked) [Example 19, 2-Methyl-3-{4-[2-(5-methyl-2-thiophen-2-yl-oxazol-4-yl)-ethoxy]-phenyl}-2-(4-methoxyphenoxy)-propionic acid]",80 nM
6,"Cc1oc(-c2cccs2)nc1CCOc1ccc(CC(C)(Oc2cccc(F)c2)C(=O)O)cc1 (centres unmarked) [Example 22, 2-(3-Fluoro-phenoxy)-2-methyl-3-{4-[2-(5-methyl-2-thiophen-2-yl-oxazol-4-yl)-ethoxy]-phenyl}-propionic acid]",85 nM
7,"Cc1oc(C2CCCCC2)nc1CCOc1ccc(CC(C)(Oc2cccc(F)c2)C(=O)O)cc1 (centres unmarked) [Example 23, 2-(3-Fluoro-phenoxy)-2-methyl-3-{4-[2-(5-methyl-2-cyclohexyl-oxazol-4-yl)-ethoxy]-phenyl}-propionic acid]",81 nM
8,"Cc1oc(-c2cccs2)nc1CCOc1ccc(CC(C)(Oc2cccc(C(C)(C)C)c2)C(=O)O)cc1 (centres unmarked) [Example 25, 2-(3-tert-Butyl-phenoxy)-2-methyl-3-{4-[2-(5-methyl-2-thiophen-2-yl-oxazol-4-yl)-ethoxy]-phenyl}-propionic acid]",70 nM
9,"Cc1oc(-c2cccs2)nc1CCOc1ccc(CC(C)(Oc2ccccc2F)C(=O)O)cc1 (centres unmarked) [Example 27, 2-(2-Fluoro-phenoxy)-2-methyl-3-{4-[2-(5-methyl-2-thiophen-2-yl-oxazol-4-yl)-ethoxy]-phenyl}-propionic acid]",76 nM
10,"Cc1oc(-c2ccccc2)nc1CCOc1ccc(CC(C)(Oc2ccc(Cl)cc2)C(=O)O)cc1 (centres unmarked) [Example 29, 2-(4-Chloro-phenoxy)-2-methyl-3-{4-[2-(5-methyl-2-phenyl-oxazol-4-yl)-ethoxy]-phenyl}-propionic acid]",48 nM
11,"Cc1oc(C2CCCCC2)nc1CCOc1ccc(CC(C)(Oc2ccc(C3CCCCC3)cc2)C(=O)O)cc1 (centres unmarked) [Example 34, 3-{4-[2-(2-Cyclohexyl-5-methyl-oxazol-4-yl)-ethoxy]-phenyl}-2-(4-cyclohexyl-phenoxy)-2-methyl-propionic acid]",77 nM
12,"Cc1ccc(OC(C)(Cc2ccc(OCCc3nc(C4CCCCC4)oc3C)cc2)C(=O)O)cc1C (centres unmarked) [Example 35, 3-{4-[2-(2-Cyclohexyl-5-methyl-oxazol-4-yl)-ethoxy]-phenyl}-2-(3,4-dimethyl-phenoxy)-2-methyl-propionic acid]",79 nM
13,"Cc1ccc(OC(C)(Cc2ccc(OCCc3nc(-c4cccs4)oc3C)cc2)C(=O)O)cc1C (centres unmarked) [Example 36, 2-(3,4-Dimethyl-phenoxy)-2-methyl-3-{4-[2-(5-methyl-2-thiophen-2-yl-oxazol-4-yl)-ethoxy]-phenyl}-propionic acid]",88 nM
14,"Cc1ccc(OC(C)(Cc2ccc(OCCc3nc(-c4cccs4)oc3C)cc2)C(=O)O)cc1 (centres unmarked) [Example 40, 2-Methyl-3-{4-[2-(5-methyl-2-thiophen-2-yl-oxazol-4-yl)-ethoxy]-phenyl}-2-p-tolyloxy-propionic acid]",10 nM
15,"Cc1ccc(OC(C)(Cc2ccc(OCCc3nc(C4CCCCC4)oc3C)cc2)C(=O)O)cc1 (centres unmarked) [Example 41, 3-{4-[2-(2-Cyclohexyl-5-methyl-oxazol-4-yl)-ethoxy]-phenyl}-2-methyl-2-p-tolyloxy-propionic acid]",109 nM
16,"Cc1oc(C2CCCCC2)nc1CCOc1ccc(CC(C)(Oc2ccc(OC(F)(F)F)cc2)C(=O)O)cc1 (centres unmarked) [Example 44, 3-{4-[2-(2-Cyclohexyl-5-methyl-oxazol-4-yl)-ethoxy]-phenyl}-2-methyl-2-(4-trifluoromethoxy-phenoxy)-propionic acid]",159 nM
17,"Cc1oc(-c2cccs2)nc1CCOc1ccc(CC(C)(Oc2ccc(C(F)(F)F)cc2)C(=O)O)cc1 (centres unmarked) [Example 51, 2-Methyl-3-{4-[2-(5-methyl-2-thiophen-2-yl-oxazol-4-yl)-ethoxy]-phenyl}-2-(4-trifluoromethyl-phenoxy)-propionic acid]",80 nM
18,"Cc1oc(C2CCCCC2)nc1CCOc1ccc(CC(C)(Oc2ccc(C(F)(F)F)cc2)C(=O)O)cc1 (centres unmarked) [Example 52, 3-{4-[2-(2-Cyclohexyl-5-methyl-oxazol-4-yl)-ethoxy]-phenyl}-2-methyl-2-(4-trifluoromethyl-phenoxy)-propionic acid]",76 nM
19,"Cc1oc(C2CCCCC2)nc1CCOc1ccc(CC(C)(Oc2ccc(F)c(F)c2)C(=O)O)cc1 (centres unmarked) [Example 58, 3-{4-[2-(2-Cyclohexyl-5-methyl-oxazol-4-yl)-ethoxy]-phenyl}-2-(3,4-difluoro-phenoxy)-2-methyl-propionic acid]",66 nM
20,"Cc1cccc(OC(C)(Cc2ccc(OCCc3nc(-c4cccs4)oc3C)cc2)C(=O)O)c1 (centres unmarked) [Example 61, 2-Methyl-3-{4-[2-(5-methyl-2-thiophen-2-yl-oxazol-4-yl)-ethoxy]-phenyl}-2-m-tolyloxy-propionic acid]",84 nM
21,"Cc1cccc(OC(C)(Cc2ccc(OCCc3nc(C4CCCCC4)oc3C)cc2)C(=O)O)c1 (centres unmarked) [Example 62, 3-{4-[2-(2-Cyclohexyl-5-methyl-oxazol-4-yl)-ethoxy]-phenyl}-2-methyl-2-m-tolyloxy-propionic acid]",79 nM
22,"Cc1oc(-c2cccs2)nc1CCOc1ccc(CC(C)(Oc2ccc(F)cc2)C(=O)O)cc1 (centres unmarked) [Example 64, 2-(4-Fluoro-phenoxy)-2-methyl-3-{4-[2-(5-methyl-2-thiophen-2-yl-oxazol-4-yl)-ethoxy]-phenyl}-propionic acid]",112 nM
23,"Cc1oc(C2CCCCC2)nc1CCOc1ccc(CC(C)(Oc2ccc(F)cc2)C(=O)O)cc1 (centres unmarked) [Example 65, 3-{4-[2-(2-Cyclohexyl-5-methyl-oxazol-4-yl)-ethoxy]-phenyl}-2-(4-fluoro-phenoxy)-2-methyl-propionic acid]",82 nM
24,"Cc1oc(C2(C)CCCCC2)nc1CCOc1ccc(C[C@](C)(Oc2ccc(F)cc2)C(=O)O)cc1 [Example 67, (S)-2-(4-Fluoro-phenoxy)-2-methyl-3-(4-{2-[5-methyl-2-(1-methyl-cyclohexyl)-oxazol-4-yl]-ethoxy}-phenyl)-propionic acid]",65 nM
25,"Cc1oc(-c2cccs2)nc1CCOc1ccc(CC(C)(Oc2cccc(C(F)(F)F)c2)C(=O)O)cc1 (centres unmarked) [Example 71, 2-Methyl-3-{4-[2-(5-methyl-2-thiophen-2-yl-oxazol-4-yl)-ethoxy]-phenyl}-2-(3-trifluoromethyl-phenoxy)-propionic acid]",81 nM
26,"COc1cccc(OC(C)(Cc2ccc(OCCc3nc(C4CCCCC4)oc3C)cc2)C(=O)O)c1 (centres unmarked) [Example 76, 3-{4-[2-(2-Cyclohexyl-5-methyl-oxazol-4-yl)-ethoxy]-phenyl}-2-(3-methoxy-phenoxy)-2-methyl-propionic acid]",83 nM
